Reference: patent publication US20230355727A1, “TREATMENT OF RETINAL DISORDERS” (Tel HaShomer Medical Research Infrastructure and Services …, priority 2020, published 2023)
“Also recorded” adds a separate entry of the source. Peptide text beside a SMILES is read from it. * marks the point of attachment. Tos = Cc1ccc(S(=O)(=O)*)cc1; CH2Cl = ClC*

Columns and labels:
[1] = test system: diabetic rats; settings: STZ-induced diabetes; Shavit-Stein et al. PLoS One 2019; cited from earlier work
[2] = test system: glioma cell lines; settings: inhibition of thrombin activity and blocking PAR1 activation; Shavit-Stein et al. 2018; cited from earlier work
[3] = test system: ALS animal model SOD-1; settings: SOD-1 ALS animal model; cited from earlier work
[4] = test system: STZ-induced diabetic C57BL/6 mice; assay: Retinal function by ERG in STZ-induced diabetic mice; type: in vivo, mouse
Experimental: Diabetes induction: Diabetes was induced in mice at age of 8 weeks by a single intraperitoneal injection of 150 mg/Kg STZ (Sigma-Aldrich). Blood glucose concentration was measured from the tail vein using Xpress-i glucometer (Nova Biomedical). Hyperglycemia was defined as blood glucose >[…] [Shavit-Stein et al. (2019) PLoS One 14, e0219453].
Electroretinogram (ERG): Mice were dark-adapted for 16 hours. ERG responses to light flashes at 5 increasing intensities (0.023, 0.249, 2.44, 7.8 and 23.5 cd-s/m^2) are recorded from both eyes simultaneously. Light-adapted ERG is similarly performed following 5 minutes light adaptation [Edelshtain et al. (2019) Algal Research 43, 101607].
C57BL/6 mice received either sham (PBS, n=5) or PARIN5 (100 nM in PBS, n=7) treatment for 7 days, starting at three days after diabetes induction by STZ injection. Retinal function was determined by ERG. Treatment included intraperitoneal (IP) injection (0.5 µl/gram, once a day) and eye drops (10 µl/eye, once a day).
In further experiments, STZ-induced diabetic were treated with eye drops, 100 nM PARIN5 in PBS (10 µl/eye, once a day), for 5 weeks. Non-diabetic mice and diabetic non-treated mice served as control.

For `N=C(N)c1ccc(CC(NC(=O)CNS(=O)(=O)c2ccc3ccccc3c2)C(=O)N2CCCCC2)cc1` (racemic) [NAPAP, Nα-(2-naphthyl-sulphonyl-glycyl)-DL-p-amidinophenylalanyl-piperidine], the “Nerve conduction velocity in diabetic rats” value [1] is given as “prevent the decreased nerve conduction velocity” and the “Growth of glioma cell lines” value [2] is given as “significantly inhibits their growth”.

For `CC(C)c1ccc(Cn2ccc3c4c(N)nc(NC5CC5)nc4ccc32)cc1.Cl.Cl` [SCH79797, N3..Cyclopropyl-7..[[4..(1.. methylethyl)phenyl]methyl]-7H-pyrrolo[3,2-f]quinazoline-1,3-diamine dihydrochloride], the “Life span of ALS model animals” value [3] is given as “increase the life span of these ALS model animals significantly”.

With `Cc1ccc(S(=O)(=O)N[C@H](C(=O)N[C@@H](CC(C)C)C(=O)N[C@@H](CC(=O)O)C(=O)N2CCC[C@H]2C(=O)N[C@@H](CCCNC(=N)N)C(=O)CCl)[C@@H](C)O)cc1` [PARIN5, ^37TLDPR^41-CMK] (Tos-TLDPR-CH2Cl) the “Retinal function by ERG b-wave after 5 weeks of daily eye drops, versus control non-diabetic mice” value ([4]; 100 nM in PBS eye drops, 10 µl/eye once a day, 5 weeks, measured 2 and 5 weeks after STZ, all p>0.3, FIG. 6) was “no significant differences; also recorded: protected the mouse retinal function” and the “Retinal function by ERG (b-wave) after 7-day treatment” value ([4]; 100 nM in PBS, IP injection 0.5 µl/gram plus eye drops 10 µl/eye, once a day, 7 days, from three days after STZ, versus sham PBS, FIG. 5) was “preserved mouse retinal function”.

For `Cc1ccc(S(=O)(=O)N[C@@H](CCCCN)C(=O)CCl)cc1` [TLCK, N-alpha-tosyl-L-lysine chloromethyl ketone], the “Life span of ALS model animals” value [3] is listed as “increase the life span of these ALS model animals significantly”.
